Strand notation (5' to 3'): a small letter for the sugar, then the base; units joined by * are phosphorothioate-linked, units joined directly phosphodiester-linked; [ ] holds rarer units or linkages, { } end groups; capitals alone tell only the bases. e = 2'-O-(2-methoxyethyl) (MOE); [5mC] = 5-methylcytosine; d = 2'-deoxy (DNA)
Key:
Type in all cases: cell-based
[1] = tested on: human Factor 7 mRNA; test: Dose-dependent antisense inhibition of human Factor 7 in HepB3 cells, lipofectin; details: HepB3 cells, approx. 16 hours (Table 14)
Procedure: Cells were plated at a density of 4,000 cells per well and treated with lipofectin reagent with 3.125 nM, 6.25 nM, 12.5 nM, 25 nM, 50 nM, and 100 nM concentrations of antisense oligonucleotide, as indicated in Table 3. After a treatment period of approximately 16 hours, RNA was isolated from the cells and Factor 7 mRNA levels were measured by real-time RT-PCR, as described herein. Human Factor 7 primer probe set RTS 2927 (forward sequence: […], incorporated herein as SEQ ID NO: 164; reverse sequence: […], incorporated herein as SEQ ID NO: 165; probe sequence: TGGGTGGTCTCCGCGGCCX, incorporated herein as SEQ ID NO: 166) was used to measure mRNA levels. Factor 7 mRNA levels were adjusted according to total RNA content as measured by RIBOGREEN®. Results are presented as percent inhibition of Factor 7, relative to untreated control cells.
Cells were plated at a density of 4,000 cells per well and transfected using lipofectin reagent with 6.25 nM, 12.5 nM, 25.0 nM, 50.0 nM, and 100.0 nM concentrations of antisense oligonucleotide, as indicated in Table 7. After a treatment period of approximately 16 hours, RNA was isolated from the cells and Factor 7 mRNA levels were measured by real-time RT-PCR, as described herein. Human Factor 7 primer probe set RTS 2927 was used to measure mRNA levels. Factor 7 mRNA levels were adjusted according to total RNA content as measured by RIBOGREEN®. Results are presented as percent inhibition of Factor 7, relative to untreated control cells.
Cells were plated at a density of 4,000 cells per well and transfected using lipofectin reagent with 3.125 nM, 6.25 nM, 12.5 nM, 25 nM, 50 nM, and 100 nM concentrations of antisense oligonucleotide, as specified in Table 14. After a treatment period of approximately 16 hours, RNA was isolated from the cells and Factor 7 mRNA levels were measured by quantitative real-time PCR. Human Factor 7 primer probe set RTS 2927 was used to measure mRNA levels. Factor 7 mRNA levels were adjusted according to total RNA content, as measured by RIBOGREEN®. Results are presented as percent inhibition of Factor 7, relative to untreated control cells.

[2] = tested on: human Factor 7 mRNA; test: Antisense inhibition of human Factor 7 mRNA in HepB3 cells, 50 nM antisense oligonucleotide, lipofectin; details: gapmers targeted to nucleobases 4868 to 4899 of SEQ ID NO: 1, Table 8
How it was run: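 Readout is percent reduction of Factor 7 message compared with untreated cells, after correction for total RNA content quantified by RIBOGREEN®. Cultures were seeded at 4,000 cells per well and treated for about 24 hours before RNA extraction.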

[3] = tested on: human Factor 7 mRNA; test: Antisense inhibition of human Factor 7 with short (14-mer) oligonucleotides in HepB3 cells, electroporation 1,000 nM; details: electroporation, 1,000 nM antisense oligonucleotide, approximately 24 hours, Factor 7 mRNA relative to untreated control cells
Text: Short antisense oligonucleotides (shortmers) were designed to target a Factor 7 nucleic acid. The shortmers in Table 17 were designed as 2-10-2 MOE gapmers. The gapmers are 14 nucleotides in length, wherein the central gap segment is comprised of 10 2′-deoxynucleotides and is flanked on both sides (in the 5′ and 3′ directions) by wings comprising 2 nucleotides each. Each nucleotide in the 5′ wing segment and each nucleotide in the 3′ wing segment has a 2′-MOE modification. The internucleoside linkages throughout each gapmer are phosphorothioate (P═S) linkages. All cytidine residues throughout each gapmer are 5-methylcytidines.
Shortmers were evaluated for their ability to reduce human Factor 7 mRNA in HepB3 cells and compared with one 5-10-5 chimeric oligonucleotide from Table 16, ISIS 407939. HepB3 cells at a density of 20,000 cells per well in a 96-well plate were transfected using electroporation with 1,000 nM of antisense oligonucleotide. After a treatment period of approximately 24 hours, RNA was isolated from the cells and Factor 7 mRNA levels were measured by real-time RT-PCR, as described herein. Factor 7 mRNA levels were adjusted according to total RNA content as measured by RIBOGREEN®. Results are presented in Table 17 as percent inhibition of Factor 7 mRNA, relative to untreated control cells. ISIS 407939 is the first oligonucleotide in Table 17 to which the shortmers were compared, and is marked by an asterisk (*).

Substance	% Inhibition [3] [%]	further results
422294 (antisense eG*eA*dG*dT*dT*d[5mC]*dT*dG*d[5mC]*dA*dG*dG*dA*dG*d[5mC]*eG*eG*e[5mC]*e[5mC]*eT) [compound 422294]		percent inhibition of Factor 7 mRNA, relative to untreated control cells ([1]; 3.125 nM): 9%; percent inhibition of Factor 7 mRNA, relative to untreated control cells ([1]; 12.5 nM): 32%; percent inhibition of Factor 7 mRNA, relative to untreated control cells ([1]; 25 nM): 61%; percent inhibition of Factor 7 mRNA, relative to untreated control cells ([1]; 50 nM): 77%; percent inhibition of Factor 7 mRNA, relative to untreated control cells ([1]; 100 nM): 84%; percent inhibition of Factor 7 mRNA, relative to untreated control cells [1]: 21%; % Inhibition of human Factor 7 mRNA levels [2]: 78%
435478 (antisense eG*eA*dG*dG*d[5mC]*dA*d[5mC]*dA*d[5mC]*dT*dG*dG*eT*e[5mC]) [compound 435478]	43	
435479 (antisense e[5mC]*eA*d[5mC]*dT*d[5mC]*d[5mC]*d[5mC]*d[5mC]*dT*dT*dT*dG*eG*eG) [compound 435479]	9	
435480 (antisense eG*eG*dT*d[5mC]*dA*dT*d[5mC]*dA*dG*d[5mC]*d[5mC]*dG*eG*eG) [compound 435480]	53	
435481 (antisense eG*eG*dG*dT*d[5mC]*dA*dT*d[5mC]*dA*dG*d[5mC]*d[5mC]*eG*eG) [compound 435481]	50	
435482 (antisense eT*eG*dG*dG*dT*d[5mC]*dA*dT*d[5mC]*dA*dG*d[5mC]*e[5mC]*eG) [compound 435482]	62	
435483 (antisense e[5mC]*eT*dG*dG*dG*dT*d[5mC]*dA*dT*d[5mC]*dA*dG*e[5mC]*e[5mC]) [compound 435483]	82	
435484 (antisense e[5mC]*e[5mC]*dT*dG*dG*dG*dT*d[5mC]*dA*dT*d[5mC]*dA*eG*e[5mC]) [compound 435484]	45	
435485 (antisense eT*e[5mC]*d[5mC]*dT*dG*dG*dG*dT*d[5mC]*dA*dT*d[5mC]*eA*eG) [compound 435485]	34	
435486 (antisense eG*eT*d[5mC]*d[5mC]*dT*dG*dG*dG*dT*d[5mC]*dA*dT*e[5mC]*eA) [compound 435486]	64	
435487 (antisense eA*eG*dT*d[5mC]*d[5mC]*dT*dG*dG*dG*dT*d[5mC]*dA*eT*e[5mC]) [compound 435487]	36	
435488 (antisense e[5mC]*eA*dG*dT*d[5mC]*d[5mC]*dT*dG*dG*dG*dT*d[5mC]*eA*eT) [compound 435488]	17	
435489 (antisense e[5mC]*eT*dG*dG*dT*dG*dT*dA*d[5mC]*dA*d[5mC]*d[5mC]*e[5mC]*e[5mC]) [compound 435489]	72	
435490 (antisense e[5mC]*e[5mC]*dT*dG*dG*dT*dG*dT*dA*d[5mC]*dA*d[5mC]*e[5mC]*e[5mC]) [compound 435490]	49	
435491 (antisense e[5mC]*e[5mC]*d[5mC]*dT*dG*dG*dT*dG*dT*dA*d[5mC]*dA*e[5mC]*e[5mC]) [compound 435491]	61	
435492 (antisense eA*e[5mC]*d[5mC]*d[5mC]*dT*dG*dG*dT*dG*dT*dA*d[5mC]*eA*e[5mC]) [compound 435492]	45	
435493 (antisense eG*eA*d[5mC]*d[5mC]*d[5mC]*dT*dG*dG*dT*dG*dT*dA*e[5mC]*eA) [compound 435493]	58	
435494 (antisense eA*eG*dA*d[5mC]*d[5mC]*d[5mC]*dT*dG*dG*dT*dG*dT*eA*e[5mC]) [compound 435494]	47	
435495 (antisense eG*eA*dG*dA*d[5mC]*d[5mC]*d[5mC]*dT*dG*dG*dT*dG*eT*eA) [compound 435495]	27	
435496 (antisense eG*eG*dA*dG*dA*d[5mC]*d[5mC]*d[5mC]*dT*dG*dG*dT*eG*eT) [compound 435496]	47	

Substance	% Inhibition [3] [%]	further results
435497 (antisense eG*eG*dG*dA*dG*dA*d[5mC]*d[5mC]*d[5mC]*dT*dG*dG*eT*eG) [compound 435497]	27	
435498 (antisense eT*eG*dG*dG*dA*dG*dA*d[5mC]*d[5mC]*d[5mC]*dT*dG*eG*eT) [compound 435498]	37	
435499 (antisense e[5mC]*eT*dG*dG*dG*dA*dG*dA*d[5mC]*d[5mC]*d[5mC]*dT*eG*eG) [compound 435499]	59	
435500 (antisense eA*e[5mC]*dT*dG*dG*dG*dA*dG*dA*d[5mC]*d[5mC]*d[5mC]*eT*eG) [compound 435500]	49	
435501 (antisense eT*eA*d[5mC]*dT*dG*dG*dG*dA*dG*dA*d[5mC]*d[5mC]*e[5mC]*eT) [compound 435501]	51	
435502 (antisense eG*eT*dA*d[5mC]*dT*dG*dG*dG*dA*dG*dA*d[5mC]*e[5mC]*e[5mC]) [compound 435502]	69	
435503 (antisense eT*eG*dT*dA*d[5mC]*dT*dG*dG*dG*dA*dG*dA*e[5mC]*e[5mC]) [compound 435503]	17	
435504 (antisense eA*eT*dG*dT*dA*d[5mC]*dT*dG*dG*dG*dA*dG*eA*e[5mC]) [compound 435504]	8	
435634 (antisense eT*eG*dA*dA*dA*dT*d[5mC]*dT*d[5mC]*dT*dG*d[5mC]*eA*eG) [compound 435634]	5	
435635 (antisense e[5mC]*eA*dT*dG*dA*dT*dG*dA*dA*dA*dT*d[5mC]*eT*e[5mC]) [compound 435635]	0	
435636 (antisense eG*eA*dG*dA*d[5mC]*d[5mC]*dA*dT*dG*dA*dT*dG*eA*eA) [compound 435636]	13	
435637 (antisense eT*eG*dA*dA*dG*d[5mC]*d[5mC]*d[5mC]*dA*dA*dG*d[5mC]*eA*eG) [compound 435637]	11	
435638 (antisense eA*eG*d[5mC]*d[5mC]*d[5mC]*dT*dG*dA*dA*dG*d[5mC]*d[5mC]*e[5mC]*eA) [compound 435638]	55	
435639 (antisense eT*e[5mC]*d[5mC]*dA*dG*dA*dA*d[5mC]*dA*dG*d[5mC]*dT*eT*e[5mC]) [compound 435639]	31	
435640 (antisense eT*eG*dT*dA*dA*dG*dA*dA*dA*dT*d[5mC]*d[5mC]*eA*eG) [compound 435640]	2	
435641 (antisense eG*eG*dT*d[5mC]*d[5mC]*d[5mC]*d[5mC]*dA*dT*d[5mC]*dA*d[5mC]*eT*eG) [compound 435641]	51	
435642 (antisense eA*e[5mC]*dA*d[5mC]*dT*dG*dG*dT*d[5mC]*d[5mC]*d[5mC]*d[5mC]*eA*eT) [compound 435642]	60	
435643 (antisense e[5mC]*eT*dT*dG*d[5mC]*dA*dG*dG*dA*dG*d[5mC]*d[5mC]*e[5mC]*e[5mC]) [compound 435643]	51	
435644 (antisense eT*eG*dG*dT*d[5mC]*d[5mC]*dT*dT*dG*d[5mC]*dA*dG*eG*eA) [compound 435644]	30	
